Like-named read-outs stand apart in the source and are kept apart here.
Assays:
Type in all cases: cell-based, human
LGALS3 (Galectin3) = test: cells; details: for fold induction at 0.1 µM / fold induction at 1 µM: Homo sapiens
Method: (§1) Methods: The hepatic tri-culture system, including adult primary human hepatocytes (PHHs), endothelial cells and stromal cells, was cultured with and without primary KCs, at a ratio of 1 KC:4 PHH or 1 KC:2 PHH, in a glucocorticoid-containing or -free media. […] MTX or TGF-β1 or […] (LPS) cause hepatic injury. The injury leads to lipid accumulation, lipotoxicity and cytokines are produced. These activate the KCs and the liver sinusoidal endothelial cells (LSEC). Then stromal activation and gene expressions occur, leading to liver fibrosis.
(§2) Following exposure to methotrexate (MTX; 0.1 and 1 μM; Sigma-Aldrich, St. Louis, MO) or TGF-β1 (0.1 and 10 ng/ml; Miltenyi Biotec, Gaithersburg, MD) or vehicle (DMSO; 0.1% v/v), the expression of various genes known to have a role in fibrogenic responses (e.g., LGALS3, LOX, MMP1) was determined. MTX and TGF-β1 are known fibrogenic compounds Cell health was assessed by urea production and LDH release in the medium.
(§3) The experiments were done in a 96-well format according to the details shown below. […] The hepatocytes were from an individual adult lot. The Kupffer cells (KCs) were from an individual adult lot. The seeding density of the Kupffer cells to the hepatocytes was selected to mimic healthy or inflammatory physiological levels (1:4 or 1:2 ratio). The seeding of the KCs occurred on Day 1 of the culture (meaning 24 hours post-hepatocyte plating).
(§4) All hepatocyte plating was performed using TCPM with Dex (1 μM), as above. Four hours after hepatocyte plating, TCCM was added with and without Dex (half of the cultures with Dex, half without.) The media used were those as described above. The medium exchange process was to do 50% media changes following KC plating up until the compound addition.
(§5) Thawing and plating of the hepatocytes was done according to methods as known in the art. The next day (24 hours) after plating the cells, the KCs were added in TCCM with or without Dex (0.1 μM) at a 1:4 or 1:2 ratio to hepatocytes. The next day and subsequent days, 50% volume of medium was changed each day. Starting at day 5 of culture, the compounds tested were added in the 50% medium volume and allowed to go, unchanged, through Day 8 of culture (72 hr treatment); or to 120 hr treatment times. The treatment compounds were methotrexate (0.1 and 1.0 μM) and TGF-β1 (0.1 and 10 ng/ml).
(§6) The cell harvest and analytical endpoints were done as follows. Phase contrast images were captured each day. The media samples were collected for lactate dehydrogenase (LDH) assay at the end of each treatment period (i.e., 72 or 120 hours of treatment with each compound). The results were used to assess cell health. Cell lysates were harvested for gene expression analysis. 2 wells were combined per sample. The treatment samples were analyzed in triplicate. The following genes that have a role in fibrogenic response were observed. LGALS3 (Galectin3); LOX (lysyl oxidase), MMP1 (matrix Metalloproteinase 1); Housekeeping gene (β-actin). The images in FIGS. 44 and 45 are at 200×.

[1] = tested on: MMP1 (matrix Metalloproteinase 1); test: cells; details: Homo sapiens
Method: as §1, §2, §3, §4, §5, §6

LOX (lysyl oxidase) = test: cells; details: Homo sapiens
Method: as §1, §2, §3, §4, §5, §6

[2] = tested on: genes known to have a role in fibrogenic responses (e.g., LGALS3, LOX, MMP1); test: Fibrogenic response gene expression overall, Example 9; details: DEX / no DEX, with / without KCs
Method: as §1, §2, §3, §4
Thawing and plating of the hepatocytes was done according to methods as known in the art. The next day (24 hours) after plating the cells, the KCs were added in TCCM with or without Dex (0.1 μM) at a 1:4 or 1:2 ratio to hepatocytes. […]
The cell harvest and analytical endpoints were done as follows. […] The treatment samples were analyzed in triplicate. […]

Compound `CN(Cc1cnc2nc(N)nc(N)c2n1)c1ccc(C(=O)N[C@@H](CCC(=O)O)C(=O)O)cc1` [MTX, methotrexate] has a fold induction at 0.1 µM (LGALS3 (Galectin3); 72 h, read-out: LGALS3 fold induction Mean, 72 hours, with Dex, No KC, MTX 0.1 μM) of 1, a fold induction at 1 µM (LGALS3 (Galectin3); 72 h, read-out: LGALS3 fold induction Mean, 72 hours, with Dex, No KC, MTX 1 μM) of 1.2 and a fold induction at 0.1 µM (LGALS3 (Galectin3); 72 h, read-out: LGALS3 fold induction Mean, 72 hours, with Dex, with KCs, MTX 0.1 μM) of 1. The fold induction at 1 µM (LGALS3 (Galectin3); 72 h, read-out: LGALS3 fold induction Mean, 72 hours, with Dex, with KCs, MTX 1 μM) was 1.1, the fold induction at 0.1 µM (LGALS3 (Galectin3); 72 h, read-out: LGALS3 fold induction Mean, 72 hours, without Dex, No KC, MTX 0.1 μM) was 1.2 and the fold induction at 1 µM (LGALS3 (Galectin3); 72 h, read-out: LGALS3 fold induction Mean, 72 hours, without Dex, No KC, MTX 1 μM) was 1.2. It also gave a fold induction at 0.1 µM (LGALS3 (Galectin3); 72 h, read-out: LGALS3 fold induction Mean, 72 hours, without Dex, with KCs, MTX 0.1 μM) of 1.5, a fold induction at 1 µM (LGALS3 (Galectin3); 72 h, read-out: LGALS3 fold induction Mean, 72 hours, without Dex, with KCs, MTX 1 μM) of 1.7 and a fold induction at 0.1 µM (LGALS3 (Galectin3); 120 h, read-out: LGALS3 fold induction Mean, 120 hours, with Dex, No KC, MTX 0.1 μM) of 1.2. It also gave a fold induction at 1 µM (LGALS3 (Galectin3); 120 h, read-out: LGALS3 fold induction Mean, 120 hours, with Dex, No KC, MTX 1 μM) of 1.1, a fold induction at 0.1 µM (LGALS3 (Galectin3); 120 h, read-out: LGALS3 fold induction Mean, 120 hours, with Dex, with KCs, MTX 0.1 μM) of 0.9 and a fold induction at 1 µM (LGALS3 (Galectin3); 120 h, read-out: LGALS3 fold induction Mean, 120 hours, with Dex, with KCs, MTX 1 μM) of 1.1. It also gave a fold induction at 0.1 µM (LGALS3 (Galectin3); 120 h, read-out: LGALS3 fold induction Mean, 120 hours, without Dex, No KC, MTX 0.1 μM) of 1.1, a fold induction at 1 µM (LGALS3 (Galectin3); 120 h, read-out: LGALS3 fold induction Mean, 120 hours, without Dex, No KC, MTX 1 μM) of 0.2 and a fold induction at 0.1 µM (LGALS3 (Galectin3); 120 h, read-out: LGALS3 fold induction Mean, 120 hours, without Dex, with KCs, MTX 0.1 μM) of 1.4. The fold induction at 1 µM (LGALS3 (Galectin3); 120 h, read-out: LGALS3 fold induction Mean, 120 hours, without Dex, with KCs, MTX 1 μM) was 1.4, the LGALS3 gene expression (LGALS3 (Galectin3); MTX at both concentrations, presence of KCs, 120 hr versus 72 hr) was “slight decline” and the fold induction at 0.1 µM ([1]; 72 h, read-out: MMP1 fold induction Mean, 72 hours, with Dex, No KC, MTX 0.1 μM) was 1.2. The fold induction at 1 µM ([1]; 72 h, read-out: MMP1 fold induction Mean, 72 hours, with Dex, No KC, MTX 1 μM) was 1.2, the fold induction at 0.1 µM ([1]; 72 h, read-out: MMP1 fold induction Mean, 72 hours, with Dex, with KCs, MTX 0.1 μM) was 1.1 and the fold induction at 1 µM ([1]; 72 h, read-out: MMP1 fold induction Mean, 72 hours, with Dex, with KCs, MTX 1 μM) was 0.9. It also gave a fold induction at 0.1 µM ([1]; 72 h, read-out: MMP1 fold induction Mean, 72 hours, without Dex, No KC, MTX 0.1 μM) of 0.9, a fold induction at 1 µM ([1]; 72 h, read-out: MMP1 fold induction Mean, 72 hours, without Dex, No KC, MTX 1 μM) of 0.7 and a fold induction at 0.1 µM ([1]; 72 h, read-out: MMP1 fold induction Mean, 72 hours, without Dex, with KCs, MTX 0.1 μM) of 1.2. The fold induction at 1 µM ([1]; 72 h, read-out: MMP1 fold induction Mean, 72 hours, without Dex, with KCs, MTX 1 μM) was 1.4, the fold induction at 1 µM ([1]; 72 h, read-out: MMP1 gene expression, 1 μM MTX, presence of KCs, 72 hr only) was 1.4 and the fold induction at 1 µM ([1]; 120 h, read-out: MMP1 fold induction Mean, 120 hours, with Dex, No KC, MTX 1 μM) was 0.7. It also gave a fold induction at 0.1 µM ([1]; 120 h, read-out: MMP1 fold induction Mean, 120 hours, with Dex, with KCs, MTX 0.1 μM) of 1, a fold induction at 1 µM ([1]; 120 h, read-out: MMP1 fold induction Mean, 120 hours, with Dex, with KCs, MTX 1 μM) of 0.6 and a fold induction at 0.1 µM ([1]; 120 h, read-out: MMP1 fold induction Mean, 120 hours, without Dex, No KC, MTX 0.1 μM) of 0.7. For the same compound, the fold induction at 1 µM ([1]; 120 h, read-out: MMP1 fold induction Mean, 120 hours, without Dex, No KC, MTX 1 μM) was 0.7, the fold induction at 0.1 µM ([1]; 120 h, read-out: MMP1 fold induction Mean, 120 hours, without Dex, with KCs, MTX 0.1 μM) was 0.7 and the fold induction at 1 µM ([1]; 120 h, read-out: MMP1 fold induction Mean, 120 hours, without Dex, with KCs, MTX 1 μM) was 0.9. It also gave a fold induction at 0.1 µM (LOX (lysyl oxidase); 72 h, read-out: LOX fold induction Mean, 72 hours, with Dex, No KC, MTX 0.1 μM) of 1.2, a fold induction at 1 µM (LOX (lysyl oxidase); 72 h, read-out: LOX fold induction Mean, 72 hours, with Dex, No KC, MTX 1 μM) of 1.1 and a fold induction at 0.1 µM (LOX (lysyl oxidase); 72 h, read-out: LOX fold induction Mean, 72 hours, with Dex, with KCs, MTX 0.1 μM) of 1. The fold induction at 1 µM (LOX (lysyl oxidase); 72 h, read-out: LOX fold induction Mean, 72 hours, with Dex, with KCs, MTX 1 μM) was 1, the fold induction at 0.1 µM (LOX (lysyl oxidase); 72 h, read-out: LOX fold induction Mean, 72 hours, without Dex, No KC, MTX 0.1 μM) was 1.1 and the fold induction at 1 µM (LOX (lysyl oxidase); 72 h, read-out: LOX fold induction Mean, 72 hours, without Dex, No KC, MTX 1 μM) was 1.1. It also gave a fold induction at 0.1 µM (LOX (lysyl oxidase); 72 h, read-out: LOX fold induction Mean, 72 hours, without Dex, with KCs, MTX 0.1 μM) of 1.3, a fold induction at 1 µM (LOX (lysyl oxidase); 72 h, read-out: LOX fold induction Mean, 72 hours, without Dex, with KCs, MTX 1 μM) of 1.5 and a fold induction at 1 µM (LOX (lysyl oxidase); 120 h, read-out: LOX fold induction Mean, 120 hours, with Dex, No KC, MTX 1 μM) of 0.8. It also gave a fold induction at 0.1 µM (LOX (lysyl oxidase); 120 h, read-out: LOX fold induction Mean, 120 hours, with Dex, with KCs, MTX 0.1 μM) of 1, a fold induction at 1 µM (LOX (lysyl oxidase); 120 h, read-out: LOX fold induction Mean, 120 hours, with Dex, with KCs, MTX 1 μM) of 1.1 and a fold induction at 0.1 µM (LOX (lysyl oxidase); 120 h, read-out: LOX fold induction Mean, 120 hours, without Dex, No KC, MTX 0.1 μM) of 1. It also gave a fold induction at 1 µM (LOX (lysyl oxidase); 120 h, read-out: LOX fold induction Mean, 120 hours, without Dex, No KC, MTX 1 μM) of 1.2, a fold induction at 0.1 µM (LOX (lysyl oxidase); 120 h, read-out: LOX fold induction Mean, 120 hours, without Dex, with KCs, MTX 0.1 μM) of 1.4 and a fold induction at 1 µM (LOX (lysyl oxidase); 120 h, read-out: LOX fold induction Mean, 120 hours, without Dex, with KCs, MTX 1 μM) of 1.5. The fold induction at 1 µM (LOX (lysyl oxidase); read-out: LOX gene expression, 1 μM MTX, presence of KCs, 72 hr and 120 hr) was ≥ 1.5 and the “culture conditions in which effects on fibrogenic genes were observed” value [2] was “observed on the no DEX treated groups with KCs”.
